We go through one compound from patent US20230381201A1, “METHODS AND COMPOSITIONS FOR TREATING FIBROTIC DISEASES” (MAX BioPharma, Inc., priority 2020, published 2023).

The test system of assay [1] is IMR-90 cells. The assay can be described thus: Basal profibrotic gene expression by Q-RT-PCR in IMR-90 cells. To be noted: F12K 1% FBS, 72 hours, FIG. 7. Type of assay: cell-based, human. As for the experimental part:
IMR-90 cells were treated in F12K medium containing 1% FBS and Oxy210 at the indicated concentrations for 72 hours. RNA was then extracted and analyzed by Q-RT-PCR for the expression of the genes as indicated and normalized to GAPDH expression.

Assay [2] concerns IMR-90 cells. In words: IMR-90 lung fibroblast cell proliferation (cell count). The assay is classed as cell-based. Particulars: IMR-90 normal human lung fibroblast cells, DMEM 1% FBS, 5 days; FIG. 5, p<0.01 vs. control. As for the experimental part: IMR-90 cells were treated with Oxy210 at the concentrations as indicated in DMEM containing 1% FBS for 5 days and then were trypsinized and counted.

The test system of assay [3] is LL97A cells. The assay can be described thus: TGFβ-induced COL1A1 and a-SMA expression by Q-RT-PCR in LL97A cells. The assay is classed as cell-based, human. Particulars: 48 hours, FIG. 8. The method, then: LL97A cells were pretreated in F12K medium containing 1% FBS for 24 hours and then the cells were treated with TGFβ in the absence or presence of Oxy210 at the indicated concentrations. After 48 hours, RNA was extracted and analyzed by Q-RT-PCR for the expression of the genes as indicated and normalized to GAPDH expression.

For assay [4], the system named is Primary human renal proximal tubular epithelial cells. In words: TGFβ-induced epithelial mesenchymal transition (EMT) of renal tubular epithelial cells, Q-RT-PCR of EMT markers and Gli1. The assay is classed as cell-based. To be noted: TGFβ 10 ng/mL, 48 hours, FIG. 4, p<0.01 vs. TGFβ. The method, then:
Primary human renal proximal tubular epithelial cells cultured in RPMI containing 1% FBS were treated with TGFβ (10 ng/mL) in the absence or presence of Oxy210 for 48 hours. RNA was extracted and analyzed by Q-RT-PCR for the expression of the EMT markers and Gli1 and normalized to GAPDH expression.

The next assay relates to C57BL/6 mice. The assay can be described thus: Bleomycin-induced pulmonary fibrosis in mice, H&E staining of lung sections. Type of assay: in vivo. Particulars: bleomycin once intratracheally, FIG. 10. As for the experimental part: C57BL/6 mice were treated once intratracheally with bleomycin with or without pirfenidone or Oxy210.
The next assay has as its system profibrogenic genes. The assay can be described thus: Basal expression of profibrogenic genes by Q-RT-PCR in primary human pericytes. Type of assay: cell-based. To be noted: DMEM 5% FBS, 72 hours, normalized to GAPDH, FIG. 2, p<0.01 vs. control. The method, then: Primary human pericytes were treated with control vehicle or Oxy210 for 72 hours in DMEM containing 5% FBS. RNA was extracted and analyzed by Q-RT-PCR for the expression of profibrotic genes and normalized to GAPDH expression.

The subject of assay [5] is LL97A cells. The assay can be described thus: Basal COL1A1 expression by Q-RT-PCR in LL97A cells. Type of assay: cell-based, human. Particulars: F12K 1% FBS, 72 hours, FIG. 9, p<0.01 vs control. As for the experimental part:
LL97A cells were treated in F12K medium containing 1% FBS and Oxy210 at the indicated concentrations for 72 hours. RNA was then extracted and analyzed by Q-RT-PCR for the expression of the genes as indicated and normalized to GAPDH expression.

The subject of assay [6] is LL97A cells. The assay can be described thus: LL97A lung fibroblast cell proliferation (cell count). The assay is classed as cell-based. To be noted: LL97A human lung fibroblast cells from a subject with idiopathic pulmonary fibrosis, F12K 1% FBS, 5 days; FIG. 6. As for the experimental part:
LL97A cells were treated with Oxy210 at the concentrations as indicated in F12K containing 1% FBS for 5 days and then were trypsinized and counted.

In another assay the test system is TGFβ target genes. In words: Basal expression of TGFβ target genes by Q-RT-PCR in primary human liver stellate cells. The assay is classed as cell-based. To be noted: DMEM 1% FBS, 48 hours, normalized to GAPDH, FIG. 1, p<0.01 vs. control. The method, then:
Primary human liver stellate cells were treated in DMEM containing 1% fetal bovine serum (FBS) for 24 hours. Next, they were treated with control vehicle or Oxy210. After 48 hours, RNA was extracted and analyzed by Q-RT-PCR for the expression of the genes as indicated and normalized to GAPDH expression.

Each structure is given as a SMILES string.

As for `C[C@]12CC[C@H]3[C@@H](CC=C4C[C@@H](O)CC[C@@]43C)[C@@H]1CC[C@@H]2[C@](C)(O)CCc1cccnc1` [Oxy210], the “basal profibrotic gene expression” value with IMR-90 cells [1] is recorded as “inhibits basal profibrotic gene expression”. Further, the cell proliferation entry in the assay with IMR-90 cells [2] is “inhibition of IMR-90 normal human lung fibroblast cell proliferation”. Further, in the assay with LL97A cells [3], the “TGFβ-induced COL1A1 expression” value was “inhibits” and the “TGFβ-induced a-SMA expression” value is “inhibits”. Besides, the “TGFβ-induced epithelial mesenchymal transition (EMT)” value in assay [4] is recorded as “inhibition of TGFβ-induced epithelial mesenchymal transition (EMT)”. For the same compound, the “bleomycin-induced damages to the lung architecture” value in the assay with C57BL/6 mice is “clear beneficial effect”. Further, the “basal expression of profibrogenic genes” value in the assay on profibrogenic genes is on record as “inhibition of basal expression of profibrogenic genes”. Besides, the “basal COL1A1 expression” value in the assay on LL97A cells [5] is listed as “inhibits basal COL1A1 expression”. In addition, the cell proliferation result in the assay on LL97A cells [6] was “inhibition of proliferation of LL97A human lung fibroblast cells”. Also, in the assay with TGFβ target genes, the “basal expression of TGFβ target genes” value is listed as “inhibition of basal expression of TGFβ target genes”.
